ChEMBL document CHEMBL1121442, “Synthesis and antitrypanosomal activity of some bis(4-guanylphenyl) five- and six-membered ring heterocycles” (1980)

Key:
Mus musculus [1] = assay: Tested for antiTrypanosomal activity against Trypanosoma rhodesiense in mice at dose of 424 mg/kg expressed as mean survival time (MST) or cures T - toxic death; assay type: functional, organism-based; parameters: dose 424 mg/kg
Mus musculus [2] = assay: Tested for antiTrypanosomal activity against Trypanosoma rhodesiense in mice at dose of 106 mg/kg expressed as mean survival time (MST) or cures T - toxic death; assay type: functional, organism-based; parameters: dose 106 mg/kg
Mus musculus [3] = assay: Tested for antiTrypanosomal activity against Trypanosoma rhodesiense in mice at dose of 6.6 mg/kg expressed as mean survival time (MST) or cures; assay type: functional
Mus musculus [4] = assay: Tested for antiTrypanosomal activity against Trypanosoma rhodesiense in mice at dose of 26.5 mg/kg expressed as mean survival time (MST) or cures; assay type: functional
Mus musculus [5] = assay: Tested for antiTrypanosomal activity against Trypanosoma rhodesiense in mice at dose of 13.3 mg/kg expressed as mean survival time (MST) or cures; assay type: functional
Mus musculus [6] = assay: Tested for antiTrypanosomal activity against Trypanosoma rhodesiense in mice at dose of 40 mg/kg expressed as mean survival time (MST) or cures; assay type: functional
Mus musculus [7] = assay: Tested for antiTrypanosomal activity against Trypanosoma rhodesiense in mice at dose of 5 mg/kg expressed as mean survival time (MST) or cures; assay type: functional
Mus musculus [8] = assay: Tested for antiTrypanosomal activity against Trypanosoma rhodesiense in mice at dose of 160 mg/kg expressed as mean survival time (MST) or cures; assay type: functional
Mus musculus [9] = assay: Tested for antiTrypanosomal activity against Trypanosoma rhodesiense in mice at dose of 320 mg/kg expressed as mean survival time (MST) or cures; assay type: functional
Mus musculus [10] = assay: Tested for antiTrypanosomal activity against Trypanosoma rhodesiense in mice at dose of 1.25 mg/kg expressed as mean survival time (MST) or cures; assay type: functional
Mus musculus [11] = assay: Tested for antiTrypanosomal activity against Trypanosoma rhodesiense in mice at dose of 10 mg/kg expressed as mean survival time (MST) or cures; assay type: functional
Mus musculus [12] = assay: Tested for antiTrypanosomal activity against Trypanosoma rhodesiense in mice at dose of 2.5 mg/kg expressed as mean survival time (MST) or cures; assay type: functional
Mus musculus [13] = assay: Tested for antiTrypanosomal activity against Trypanosoma rhodesiense in mice at dose of 80 mg/kg expressed as mean survival time (MST) or cures; assay type: functional
Mus musculus [14] = assay: Tested for antiTrypanosomal activity against Trypanosoma rhodesiense in mice at dose of 640 mg/kg expressed as mean survival time (MST) or cures; assay type: functional
Mus musculus [15] = assay: Tested for antiTrypanosomal activity against Trypanosoma rhodesiense in mice at dose of 20 mg/kg expressed as mean survival time (MST) or cures; assay type: functional
Mus musculus [16] = assay: Tested for antiTrypanosomal activity against Trypanosoma rhodesiense in mice at dose of 160 mg/kg expressed as mean survival time (MST) or cures T - toxic death; assay type: functional, organism-based; parameters: dose 160 mg/kg
Mus musculus [17] = assay: Tested for antiTrypanosomal activity against Trypanosoma rhodesiense in mice at dose of 640 mg/kg expressed as mean survival time (MST) or cures, T - toxic death; assay type: functional, organism-based; parameters: dose 640 mg/kg
Mus musculus [18] = assay: Tested for antiTrypanosomal activity against Trypanosoma rhodesiense in mice at dose of 320 mg/kg expressed as mean survival time (MST) or cures T - toxic death; assay type: functional, organism-based; parameters: dose 320 mg/kg
Mus musculus [19] = assay: Tested for antiTrypanosomal activity against Trypanosoma rhodesiense in mice at dose of 212 mg/kg expressed as mean survival time (MST) or cures; assay type: functional
Mus musculus [20] = assay: Tested for antiTrypanosomal activity by screening against Trypanosoma rhodesiense in mice at dose of 424 mg/kg expressed as mean survival time (MST) or cures T - toxic death; assay type: functional, organism-based; parameters: dose 424 mg/kg
Mus musculus [21] = assay: Tested for antiTrypanosomal activity against Trypanosoma rhodesiense in mice at dose of 53 mg/kg expressed as mean survival time (MST) or cures; assay type: functional
Mus musculus [22] = assay: Tested for antiTrypanosomal activity against Trypanosoma rhodesiense in mice at dose of 106 mg/kg expressed as mean survival time (MST) or cures; assay type: functional
Mus musculus [23] = assay: Tested for antiTrypanosomal activity against Trypanosoma rhodesiense in mice at dose of 26.5 mg/kg expressed as mean survival time (MST) or cures T - toxic death; assay type: functional, organism-based; parameters: dose 26.5 mg/kg
Mus musculus [24] = assay: Tested for antitrypanosomal activity against trypanosoma rhodesiense in mice at dose of 53 mg/kg expressed as mean survival time (MST) or cures; assay type: functional
Mus musculus [25] = assay: Tested for antitrypanosomal activity against trypanosoma rhodesiense in mice at dose of 424 mg/kg expressed as mean survival time (MST) or cures; assay type: functional
Mus musculus [26] = assay: Tested for antiTrypanosomal activity against Trypanosoma rhodesiense in mice at dose of 3.3 mg/kg expressed as mean survival time (MST) or cures; assay type: functional

Compound	Cures (Mus musculus [6])	Cures (Mus musculus [7])	Cures (Mus musculus [8])	Cures (Mus musculus [9])	Cures (Mus musculus [11])	Cures (Mus musculus [12])	Cures (Mus musculus [13])	Cures (Mus musculus [14])	Cures (Mus musculus [15])	other results
Cl.Cl.c1cc(-c2nnc(-c3ccc(C4=NCCCN4)cc3)o2)ccc1C1=NCCCN1	–	–	–	–	–	–	–	–	–	Delta MST (Mus musculus [1]): Toxic death; Delta MST (Mus musculus [2]): Toxic death; Delta MST (Mus musculus [3]): 1.3 days; Cures (Mus musculus [4]): 5; Cures (Mus musculus [5]): 1
N=C(Nc1ccc(NC(=N)c2ccccc2)o1)c1ccccc1	5	5	5	5	5	4	5	5	5	Cures (Mus musculus [10]): 4
Cl.Cl.c1cc(-c2ccc(-c3ccc(C4=NCCN4)cc3)nn2)ccc1C1=NCCN1	–	–	3	5	–	–	1	–	–	Delta MST (Mus musculus [6]): 1.1 days; Delta MST (Mus musculus [11]): 0.3 days; Delta MST (Mus musculus [15]): 1.1 days
N=C(N)c1ccc(/C=C/c2ccc(C(=N)N)cc2O)cc1 [HYDROXYSTILBAMIDINE]	5	5	5	5	5	5	5	5	5	Cures (Mus musculus [10]): 2
Cl.Cl.c1cc(-c2cnc(-c3ccc(C4=NCCCN4)cc3)o2)ccc1C1=NCCCN1	5	3	–	–	5	3	2	–	5	Delta MST (Mus musculus [10]): 2.7 days; Delta MST (Mus musculus [16]): Toxic death; Delta MST (Mus musculus [17]): Toxic death; Delta MST (Mus musculus [18]): Toxic death
CC1CNC(c2ccc(-c3cnc(-c4ccc(C5=NC(C)CN5)cc4)o3)cc2)=N1.Cl.Cl (configuration not stated)	–	–	–	–	–	–	–	–	–	Delta MST (Mus musculus [19]): 6.8 days; Delta MST (Mus musculus [20]): Toxic death; Delta MST (Mus musculus [21]): 2.4 days; Delta MST (Mus musculus [22]): 5.2 days; Delta MST (Mus musculus [4]): 2.2 days; Delta MST (Mus musculus [5]): 1 days
Cl.Cl.c1cc(-c2nnc(-c3ccc(C4=NCCN4)cc3)o2)ccc1C1=NCCN1	–	–	–	–	–	–	–	–	–	Delta MST (Mus musculus [6]): 0.8 days; Delta MST (Mus musculus [8]): 1 days; Delta MST (Mus musculus [17]): Toxic death
N=C(N)c1ccc(OCCCCCOc2ccc(C(=N)N)cc2)cc1 [PENTAMIDINE]	5	5	5	5	5	4	5	5	5	Cures (Mus musculus [10]): 1
Cl.Cl.c1cc(-c2nnc(-c3ccc(C4=NCCCN4)cc3)s2)ccc1C1=NCCCN1	–	–	–	–	–	–	–	–	–	Delta MST (Mus musculus [6]): 1.1 days; Delta MST (Mus musculus [1]): Toxic death; Delta MST (Mus musculus [2]): Toxic death; Delta MST (Mus musculus [23]): Toxic death
CC1CNC(c2ccc(-c3nnc(-c4ccc(C5=NC(C)CN5)cc4)o3)cc2)=N1 (configuration not stated)	–	–	–	–	–	–	–	–	–	Delta MST (Mus musculus [1]): Toxic death; Delta MST (Mus musculus [2]): Toxic death; Delta MST (Mus musculus [23]): Toxic death
Cl.Cl.N=C(N)c1ccc(-c2nnc(-c3ccc(C(=N)N)cc3)s2)cc1	–	–	–	–	–	–	–	–	–	Cures (Mus musculus [19]): 5; Delta MST (Mus musculus [10]): 2 days; Cures (Mus musculus [24]): 5; Cures (Mus musculus [25]): 2; Cures (Mus musculus [3]): 4; Cures (Mus musculus [22]): 5; Cures (Mus musculus [4]): 5; Cures (Mus musculus [26]): 3; Cures (Mus musculus [5]): 5
Cl.Cl.N=C(N)c1ccc(-c2nnc(-c3ccc(C(=N)N)cc3)o2)cc1	–	–	–	–	–	–	–	–	–	Delta MST (Mus musculus [6]): 0.8 days; Delta MST (Mus musculus [8]): 0.8 days; Delta MST (Mus musculus [17]): Toxic death
Cl.Cl.c1cc(-c2cnc(-c3ccc(C4=NCCN4)cc3)o2)ccc1C1=NCCN1	–	–	–	–	–	–	–	–	–	Delta MST (Mus musculus [25]): 1.6 days; Delta MST (Mus musculus [22]): 0.4 days; Delta MST (Mus musculus [4]): 0.2 days
Cl.Cl.N=C(N)c1ccc(-c2cnc(-c3ccc(C(=N)N)cc3)o2)cc1	5	5	5	5	5	3	5	5	5	Delta MST (Mus musculus [10]): 1.8 days
N=C(N)c1ccc(/C=C/c2ccc(C(=N)N)cc2)cc1 [STILBAMIDINE]	5	5	5	5	5	5	5	5	5	Cures (Mus musculus [10]): 2
Cl.Cl.c1cc(-c2ccc(-c3ccc(C4=NCCCN4)cc3)nn2)ccc1C1=NCCCN1	4	–	–	–	1	–	1	–	4	Delta MST (Mus musculus [2]): Toxic death
